Laboratory results reported in patent publication US11629141B2, “Proteasome inhibitors and uses thereof” (CORNELL UNIVERSITY, priority 2015, dated 2023).
“Also recorded” adds a separate entry of the source. Where two headings read alike, the source gives them in different places.

Key:
[1] = target: T1, human immunoproteasome β5i (Homo sapiens, UniProt P28062); test: IC50 against chymotryptic β5i activity of human immunoproteasome (96-well plate, Ac-ANW-AMC); format: biochemical; details: β5i; substrate Ac-ANW-AMC; read-out: IC50 Hu i-20S (Ac-ANW-AMC)
T1 construct: purchased Boston Biochem Inc

hu i-20S β5i = target: T2, hu i-20S β5i (Homo sapiens, UniProt P28062); test: Kinetic analysis, substrate titration of hu i-20S steady state velocities; format: biochemical
T2 construct: purchased Boston Biochem Inc
Experimental: (§1) FIGS. 1A-1E are graphs showing inhibition modality of PKS21004 against human proteasomes. Washout of c-20S from the preincubated c-20S and […] to recover the β5c activity (FIG. 1A). Substrate titration of hu i-20S (FIG. 1B) and c-20S (FIG. 1D) steady state velocities in the presence of PKS21004 at the concentrations indicated next to each curve. Data as in (FIG. 1B) were plotted double reciprocal in (FIG. 1C), and (FIG. 1D) in (FIG. 1E).
(§2) A washout experiment was used to confirm the reversibility of this class of proteasome inhibitors, as expected from their non-covalent chemistry.

c-20S β5c = target: T3, c-20S β5c (Homo sapiens, UniProt P28074); test: Kinetic analysis, substrate titration of c-20S steady state velocities; format: biochemical
T3 construct: purchased Boston Biochem Inc
Experimental: as §1, §2

β1i = target: T4, β1i (Homo sapiens, UniProt P28065); test: Inhibition of β1i activity; format: biochemical; details: no inhibition <33 μM
T4 construct: purchased Boston Biochem Inc
Experimental: (§3) The foregoing features of these AsnEDA encouraged a further round of SAR studies (Table 5) based on varying the carboxylic acid at the ethylenediamine, the N-cap at the Asn, and the side chain of the Asn, based on PKS21004. All compounds listed in the Table 5 were synthesized as described in Examples 6-77. All final compounds were confirmed by NMR and HRMS. IC50s of all compounds against β5i and β5c (Table 5), β1i, β2i, β1c and β2c were determined following a reported method (Lin et al., “N,C-Capped Dipeptides With Selectivity for Mycobacterial Proteasome Over Human Proteasomes: Role of S3 and S1Binding Pockets,” J Am Chem Soc. 135:9968-9971 (2013), which is hereby incorporated by reference in its entirety). […] The [1,1′-biphenyl]-3-carboxamide of PKS21004 was then modified with the following substituents: 4′-fluoro (PKS21026), 4′-cyano (PKS21028), 4-fluoro (PKS21196), 4,3′-difluoro (PKS21195) and 4,2′-difluoro (PKS21187).

β2i = target: T5, β2i (Homo sapiens, UniProt P40306); test: Inhibition of β2i activity; format: biochemical; details: no inhibition <33 μM
T5 construct: purchased Boston Biochem Inc
Experimental: as §3

β1c = target: T6, β1c (Homo sapiens, UniProt P28072); test: Inhibition of β1c activity; format: biochemical; details: no inhibition <33 μM
T6 construct: purchased Boston Biochem Inc
Experimental: as §3

β2c = target: T7, β2c (Homo sapiens, UniProt Q99436); test: Inhibition of β2c activity; format: biochemical; details: no inhibition <33 μM
T7 construct: purchased Boston Biochem Inc
Experimental: as §3

Plasmodium falciparum = test: Growth of Plasmodium falciparum in red blood cells (SYBR Green, 72 hours); format: cell-based
Experimental: Continuous in vitro cultures of Plasmodium falciparum: were maintained in human red blood cells (RBC) diluted to a hematocrit of 5% in RPMI 1640 medium with HEPES and Hypoxanthine and completed with 0.5% Albumax II (Invitrogen), 0.25% sodium bicarbonate, and 0.1 mg/ml gentamicin. Parasites were incubated at 37° C. in a gas mixture of 5% oxygen, 5% carbon dioxide, and 90% nitrogen.
Parasite sensitivity to novel compounds were determined using a SYBR Green (Invitrogen S1046) drug assay protocol. P. falciparum of various clinic stains were cultured with compounds at concentrations in a series of dilution in a clear, sterile 96-well plate for 72 hours. Subsequently, 150 μl of the cultures were transferred to a black 96-well plate and placed in the freezer for red blood cell lysis. The plates were thawed and suspended in a Sybr Green Lysis buffer. GraphPad Prism was used to analyze the raw data collected […]. Drug concentrations were converted to logarithms, normalized, and then curve fitted by non-linear regression to obtain EC50 values.
Plasmodium falciparum: parasites were cultured in human red cells. Drug assays were run in 96 well plates at a total volume of 200 μl. Assays were set up at a starting parasitemia (percent of infected red cells) of 0.5%. Test compounds were plated at concentrations of 2778 nM to 0.4 nM. The test plates were grown under standard low oxygen conditions at 37° C. for 72 hours. At that time the plates were prepared for growth determination, first the plates were frozen and thawed to lyse the red blood cells, 150 μl of the lysed thawed culture was transferred to a black 96 well plate, and mixed in a lysis buffer with SYBR green DNA dye. The fluorescence of each well was recorded in a plate reader with excitation wavelength 490 nm and emission wavelength 530 nm and normalized relative to DMSO control. The EC50s were determined using Prism software.

P. berghei = test: Killing of P. berghei sporozoite stage in HepG2 cells; format: cell-based; details: Plasmodium berghei
Pf20S β5 = test: Labeling of Pf20S active subunits by activity probe MV151 in Pf lysates; format: biochemical, P. falciparum; details: 1 hour with inhibitor, then MV151 (2 μM) 1 hour
Experimental: Pf lysates were incubated with inhibitors at indicated concentrations for 1 hour prior to incubation with MV151 (2 μM) for an additional hour. SDS pages were scanned on a Typhoon fluorescent scanner. […] BTZ was used as a positive control.

P. falciparum schizonts = test: Accumulation of poly-ubiquitinated proteins in P. falciparum schizonts; format: cell-based; details: 4 hours post treatment
[2] = fit to equation for noncompetitive inhibitors

## CC(C)(C)NC(=O)C[C@H](NC(=O)CCc1ccccc1)C(=O)NCCNC(=O)c1cccc(-c2ccccc2)c1 [PKS21004]
[1]
  IC50: 58 nM
Hu i-20S β5i
  Ki: 77 nM
Hu i-20S β5i; [2]
  α for i-20S (β5i): 0.28 and ≈ 0.28
Hu i-20S β5i; with respect to substrate
  modality of inhibition of β5i: noncompetitive inhibitor
c-20S β5c
  Ki: 550 nM
c-20S β5c; [2]
  α for c-20S: 0.98 and ≈ 0.57
c-20S β5c; with respect to substrate
  modality of inhibition of β5c: noncompetitive inhibitor
β1i
  IC50 against β1i: no inhibition
β2i
  IC50 against β2i: no inhibition
β1c
  IC50 against β1c: no inhibition
β2c
  IC50 against β2c: no inhibition
Plasmodium falciparum; D6, Erythrocyte, read-out: EC50s against P. falciparum strain D6
  EC50: 4 nM
Plasmodium falciparum; DD2, Erythrocyte, read-out: EC50s against P. falciparum strain Dd2
  EC50: 4.8 nM
Plasmodium falciparum; Erythrocyte, P.f. 3D7, growth in red blood cells, read-out: EC50 (nM) (P.f.)
  EC50: 4.6 nM
Plasmodium falciparum; Erythrocyte, read-out: EC50s against P. falciparum strain IPC 3663
  EC50: 6 nM
Plasmodium falciparum; Erythrocyte, read-out: EC50s against P. falciparum strain IPC 4884
  EC50: 5.2 nM
Plasmodium falciparum; Erythrocyte, read-out: EC50s against P. falciparum strain IPC 4912
  EC50: 5.8 nM
Plasmodium falciparum; Erythrocyte, read-out: EC50s against P. falciparum strain IPC 5188
  EC50: 1.5 nM
Plasmodium falciparum; Erythrocyte, read-out: EC50s against P. falciparum strain Sb1-a6
  EC50: 4.8 nM
Plasmodium falciparum; Erythrocyte, read-out: EC50s against P. falciparum strain V1S
  EC50: 1.7 nM
Plasmodium falciparum; HB3, Erythrocyte, read-out: EC50s against P. falciparum strain HB3
  EC50: 10 nM
P. berghei; read-out: EC50 killing of P. berghei, compound & sporozoites incubated with HepG2, media replaced after 14 hours
  EC50: 21 nM
P. berghei; compound & sporozoites incubated with HepG2, media replaced after 6 hours, read-out: EC50 killing of P. berghei, 6 hours
  EC50: 41 nM
P. berghei; sporozoites pre-treated 30 minutes on ice, added to HepG2, media replaced after 4 hours, read-out: EC50 killing of P. berghei, sporozoites pre-treated (P/T)
  EC50: 157 nM
Pf20S β5
  labeling of Pf20S β5 by MV151: block labeling; also recorded: inhibited the labeling
P. falciparum schizonts
  accumulation of poly-ubiquitinated proteins: accumulation of poly-ubiquitinated proteins
